Data from paper PMC8321240, “Cell-Type-Specific High Throughput Toxicity Testing in Human Midbrain Organoids” (Frontiers in Molecular Neuroscience, 2021).
Entries after “also recorded” stand apart in the source; their conditions may differ.

Legend:
[1] = system: TH+ dopaminergic and Map2+ general neurons in AMOs; test: Dose-response analysis, TH and Map2 content by high content imaging; type: cell-based, human; conditions: 48 h + 6 days; for Map2 content (general neurons) / TH content (dopaminergic neurons): 0.01-1,000 μM (rotenone up to 100 μM), both AMO lines; for TH levels compared to Map2 levels: dose-response, padj < 0.05
Description: All processing steps were conducted in an HTS-compatible automated liquid handling system (ALHS, a Biomek FXP liquid handling station). To quantify different cellular subpopulations within the AMOs, we employed our previously described (Renner et al., [2020], [2021b]) ALHS-compatible workflow for combined whole-mount staining and clearing, with minor modifications. We fixed the AMOs with 4% PFA (VWR) for 10–15 min and stained the entire aggregates with primary and secondary antibodies for 6 days each. The antibodies used in this study were as follows. Primary: mouse anti-Map2 (1:1,000, Merck Millipore, cat#: MAB3418) and rabbit anti-TH (1:500, Abcam, cat#: ab112). Secondary: donkey anti-mouse IgG, Alexa Fluor 488 conjugated (1:1,000, Thermo Fisher, cat#: A-21202) and donkey anti-rabbit IgG, Alexa Fluor 647 conjugated (1:1,000, Thermo Fisher, cat#: A-31573). The antibodies were diluted in blocking and permeabilization solution consisting of 6% BSA, 0.5% Triton-X 100 (Roth), 0.1% (w/v) sodium azide (Sigma-Aldrich) in PBS (Sigma-Aldrich) and immediately added after fixation following a triple rinse with PBS. We renewed the antibody solutions once after three days. As a nuclear counter stain, we added DAPI (1 μg/ml, Sigma-Aldrich) to the solution containing the secondary antibodies. Between primary and secondary antibody application and after finishing the secondary antibody incubation, we washed the samples overnight with 0.1% Triton X-100 in PBS, with a total of five exchanges of the washing solution. After the whole-mount staining, we performed BABB-based tissue clearing (Dent et al., [1989]) to allow image acquisition with single-cell resolution of the entire aggregates. For this purpose, we first dehydrated the AMOs via a stepwise methanol (Roth) series (25%, 50%, 70%, 90%, and 100%, each for 15 min). For clearing and imaging, we transferred them to organic solvent-resistant cyclo-olefin 96-well flat-bottom plates (“Screenstar”, Greiner Bio-One). Finally, we incubated the samples for 30 min in 1:1 (v/v) methanol/BABB (BABB consisted of benzyl alcohol (Sigma-Aldrich) and benzyl benzoate (Sigma-Aldrich) at a 1:1 (v/v) ratio) and then kept them in 100% BABB in the dark for storage and subsequent automated high content confocal fluorescent analysis.
We prepared and treated the AMOs with the compounds as described for the primary viability screen. On day 50, after 48 h of compound incubation, we replaced the medium with standard AMO medium and maintained the AMOs for 6 additional days under standard culture conditions. This additional time allows the cells killed by the compounds to be cleared from the aggregates. After the 6 days, we fixed the organoids with 4% PFA, whole-mount-stained them for TH and Map2, and tissue-cleared them as described above. To achieve uniform aggregate positioning within the wells before imaging, we tilted the plates off the horizontal plane at 60 degrees for a minimum of 5 min. We performed automated image acquisition of entire 96-well plates on an Operetta high content imager (Perkin Elmer) and analyzed images in the Harmony 4.1 software and/or Columbus version 2.6.0 as previously described (Renner et al., [2020]), with adjustments to account for the individual properties of the staining and samples. We acquired three medial planes for each organoid, spaced 36.6 μm apart to avoid double-sampling individual morphological features. For the analysis, we defined the organoid region in each image by summing all channels, removed small localized features with a median filter (10 px), and identified putative organoids/regions of interest (ROIs) with the “find image region” function. To identify bona fide AMOs and exclude image artifacts and dust, we selected the ROIs with an area >9,000 μm^2, roundness >0.4, and mean DAPI intensity >190 arbitrary brightness units (abu).

[2] = system: TH+ dopaminergic and Map2+ general neurons in AMOs; test: Primary cell-type-specific toxicity screen (whole-mount TH/Map2 staining, high content imaging); type: cell-based, human; conditions: approx. 100 μM, 48 h + 6 days, shared between both AMO lines, padj < 0.05
Description: All processing steps were conducted in an HTS-compatible automated liquid handling system (ALHS, a Biomek FXP liquid handling station). To quantify different cellular subpopulations within the AMOs, we employed our previously described (Renner et al., [2020], [2021b]) ALHS-compatible workflow for combined whole-mount staining and clearing, with minor modifications. We fixed the AMOs with 4% PFA (VWR) for 10–15 min and stained the entire aggregates with primary and secondary antibodies for 6 days each. The antibodies used in this study were as follows. Primary: mouse anti-Map2 (1:1,000, Merck Millipore, cat#: MAB3418) and rabbit anti-TH (1:500, Abcam, cat#: ab112). Secondary: donkey anti-mouse IgG, Alexa Fluor 488 conjugated (1:1,000, Thermo Fisher, cat#: A-21202) and donkey anti-rabbit IgG, Alexa Fluor 647 conjugated (1:1,000, Thermo Fisher, cat#: A-31573). The antibodies were diluted in blocking and permeabilization solution consisting of 6% BSA, 0.5% Triton-X 100 (Roth), 0.1% (w/v) sodium azide (Sigma-Aldrich) in PBS (Sigma-Aldrich) and immediately added after fixation following a triple rinse with PBS. We renewed the antibody solutions once after three days. As a nuclear counter stain, we added DAPI (1 μg/ml, Sigma-Aldrich) to the solution containing the secondary antibodies. Between primary and secondary antibody application and after finishing the secondary antibody incubation, we washed the samples overnight with 0.1% Triton X-100 in PBS, with a total of five exchanges of the washing solution. […]
We prepared and treated the AMOs with the compounds as described for the primary viability screen. […] We performed automated image acquisition of entire 96-well plates on an Operetta high content imager (Perkin Elmer) and analyzed images in the Harmony 4.1 software and/or Columbus version 2.6.0 as previously described (Renner et al., [2020]), with adjustments to account for the individual properties of the staining and samples. […]

[3] = system: automated midbrain organoids (AMOs); test: Dose-response analysis, ATP-based overall AMO viability; type: cell-based, human; conditions: 48 h + 6 days; for viability: 0.01-1,000 μM (rotenone up to 100 μM), both AMO lines
Description: AMOs were cultured as described above for 47 days. On day 47, we exchanged their medium to tox medium (TM), initially without the addition of any compounds. […] For each compound, we included n = 8 controls per compound treated with the corresponding solvent at an amount equivalent to the highest compound concentration. To assess viability and cell type-specific toxicity in parallel and under the same conditions, we treated all samples with the compounds for 48 h, then exchanged their medium to standard culture medium without compounds and maintained them for an additional 6 days before analysis to allow breakdown and removal of cellular debris. Organoid viability and cell type-specific toxicity were analyzed as described for the primary screens. Here, we acquired five confocal planes spaced 36.6 μm apart in our Operetta high content imager. The image analysis of the AMOs for cell type-specific toxicity assessment required minor adjustments to account for the individual properties of the staining. […] For Map2, we performed Gaussian smoothing with a width of 10 px and omitted the additional sliding parabola filter. The other steps were performed as outlined for the primary cell-type-specific toxicity screen. […] In detail: The dose-response series, including the individual solvent controls, was performed for every compound on a separate 96-well plate of AMOs with initially n = 8 organoids per concentration. […] Data processing, including normalizations, was performed for each individual compound/plate as outlined above for the primary screens. Significant differences between the Map2 and TH content were also determined in GraphPad Prism as described for the primary screen and with the same parameters (multiple comparisons were performed for the different concentrations instead of compounds).

[4] = system: automated midbrain organoids (AMOs); test: Primary organoid viability screen (ATP-based CellTiter-Glo 3D); type: cell-based, human; conditions: approx. 100 μM, 48 or 96 h, two AMO lines
[5] = system: 2D-cultured midbrain dopaminergic (mDA) neurons; test: Viability of 2D-cultured mDA neurons (CellTiter-Glo 2.0) in the 2D vs 3D comparison; type: cell-based; conditions: Homo sapiens, Neuron, 2D mDA neurons, 48 h exposure from day 50
Description: To compare the toxic effects of compounds on AMOs and 2D-cultured midbrain dopaminergic neurons, we seeded and cultured both in parallel and generated them from the same smNPC starting cell population. For 2D dopaminergic neuron differentiation, smNPCs were seeded in 1% (v/v in KO-DMEM/F-12) Matrigel-coated 6-well plates and standard smNPC medium, following digestion by accutase as described above. From day 2 onwards, they were treated identically with the AMOs (i.e., they received the same media at the same timepoints). To work with the 2D dopaminergic neurons in a screening setting (and have the same plate format as the AMOs), we reseeded them to flat-bottom 96-well plates (“μCLEAR”, black, Greiner) at a density of 70,000 cells/well on day 48. On day 49, the medium of both 2D mDA neurons and 3D AMOs was exchanged to tox medium. The next day, we treated them with different concentrations (0.01, 0.1, 1, 10, 50, 100, 200, 500, and 1,000 μM; controls received the corresponding solvent at an amount equivalent to the highest compound concentration; n = 6 per concentration) of the compounds lindane (Sigma-Aldrich, in ethanol) and 6-hydroxydopamine hydrochloride (Sigma Aldrich, in DMSO) in tox medium. After 48 h of incubation, we measured the samples’ viability. For the AMOs, we used the CellTiter-Glo 3D cell viability assay as described above. We measured the 2D mDA neuron viability with the CellTiter-Glo 2.0 cell viability assay (Promega) according to the manufacturer’s instructions. In short, we brought the sample plates and reagents to room temperature for 30 min. We adjusted the media volume of the samples to 50 μl and added an equal volume (50 μl) of the CellTiter-Glo 2.0 reagent. We let the plate shake for 2 min at 900 rpm on a Thermomixer and then incubated them for 10 min at room temperature and protected from light. Immediately afterward, we measured the luminescence on a Synergy Mx plate reader. We outputted the results to Microsoft Excel and GraphPad Prism v9.0.1 for reformatting, plotting, and analysis. Data processing was performed as outlined for the CellTiter-Glo 3D-based viability assay above, except for the averaging of technical replicates, as measurements were performed directly in the culture plate without additional technical replicates.
All other data analysis steps including the statistical analysis to identify significant differences in toxicity between 2D and 3D (via multiple unpaired t-tests with the same parameters as above, corrected for using the Bonferroni-Dunn method, and considering padj <0.05 as significant), as well as dose-response curve fitting, were performed as described in detail above. The IC50 values were taken from the same regression/analysis as the dose-response curves.

[6] = system: automated midbrain organoids (AMOs); test: Viability of 3D AMOs (CellTiter-Glo 3D) in the 2D vs 3D comparison; type: cell-based, human; conditions: for IC50: Homo sapiens, 48 h exposure from day 50
Description: We cultured AMOs for 47 days in our automated system as described above. On day 47, we exchanged the organoid medium to a minimal tox medium (TM, consisting of DMEM/F-12 with 1% N2 supplement and 1% penicillin/streptomycin/glutamine) to reduce possible interference from antioxidants in the B27 media supplement. The next day, we treated the AMOs with the compounds from the library at a concentration of 100 μM in TM with some deviations due to solubility (see Supplementary Table 1 for a complete list of compounds including their final concentrations in the screen). DMSO control samples contained 0.5% (v/v) DMSO, which is equivalent to the amount of solvent in the samples that received compound treatment. After 48 h of incubation with the compounds, we either directly processed the organoids for the 48-h time point or renewed the compounds in TM once to achieve 96 h of incubation. Following either 48 or 96 h of compound incubation, we used the CellTiter-Glo 3D cell viability assay (Promega) to measure the viability of individual organoids, as previously described (Renner et al., [2020]). Briefly, the 96-well plates of AMOs and the reagents were brought to room temperature for 30 min. We adjusted the media volume of each well to 55 μl and added an equal volume (55 μl) of the CellTiter-Glo 3D reagent. Next, the samples were shaken on a Thermomixer (Eppendorf) at 900 rpm for 5 min and then incubated for 25 min at room temperature while protected from light. To minimize signal cross-talk between adjacent wells, we transferred the contents of the clear 96-well culture plates to white/opaque 384-well Lumitrac plates (Greiner) with two technical replicates (20 μl each) per sample, after the incubation. We recorded the luminescence immediately after the transfer using a Synergy Mx plate reader (BioTek). We outputted the results to Microsoft Excel for reformatting and then transferred them to GraphPad Prism v9.0.1 (Graphpad Software, Inc.) for plotting and statistical analysis.
To compare the toxic effects of compounds on AMOs and 2D-cultured midbrain dopaminergic neurons, we seeded and cultured both in parallel and generated them from the same smNPC starting cell population. For 2D dopaminergic neuron differentiation, smNPCs were seeded in 1% (v/v in KO-DMEM/F-12) Matrigel-coated 6-well plates and standard smNPC medium, following digestion by accutase as described above. From day 2 onwards, they were treated identically with the AMOs (i.e., they received the same media at the same timepoints). To work with the 2D dopaminergic neurons in a screening setting (and have the same plate format as the AMOs), we reseeded them to flat-bottom 96-well plates (“μCLEAR”, black, Greiner) at a density of 70,000 cells/well on day 48. On day 49, the medium of both 2D mDA neurons and 3D AMOs was exchanged to tox medium. The next day, we treated them with different concentrations (0.01, 0.1, 1, 10, 50, 100, 200, 500, and 1,000 μM; controls received the corresponding solvent at an amount equivalent to the highest compound concentration; n = 6 per concentration) of the compounds lindane (Sigma-Aldrich, in ethanol) and 6-hydroxydopamine hydrochloride (Sigma Aldrich, in DMSO) in tox medium. After 48 h of incubation, we measured the samples’ viability. For the AMOs, we used the CellTiter-Glo 3D cell viability assay as described above. We measured the 2D mDA neuron viability with the CellTiter-Glo 2.0 cell viability assay (Promega) according to the manufacturer’s instructions. In short, we brought the sample plates and reagents to room temperature for 30 min. We adjusted the media volume of the samples to 50 μl and added an equal volume (50 μl) of the CellTiter-Glo 2.0 reagent. We let the plate shake for 2 min at 900 rpm on a Thermomixer and then incubated them for 10 min at room temperature and protected from light. Immediately afterward, we measured the luminescence on a Synergy Mx plate reader. […]

Row | Compound | Map2 content (general neurons) [1] | TH content (dopaminergic neurons) [1] | TH levels compared to Map2 levels [1] | significant difference in reduction between TH and Map2 (dopaminergic neuron-specific toxicity) [2] | viability [3] | further results
1 | CC(C)(c1cc(Br)c(O)c(Br)c1)c1cc(Br)c(O)c(Br)c1 [TBBPA, 3,3′,5,5′-tetrabromobisphenol A] | strongly reduced | strongly reduced | significantly reduced TH levels compared to Map2 over a broad range of concentrations | statistically significant difference in reduction between TH and Map2 | strongly reduced | –
2 | CC(=O)Oc1ccccc1C(=O)O [ASS, acetylsalicylic acid, reference compound] | no impact | no impact | – | – | – | overall toxicity in the dose-response experiments ([3]; 0.01-1,000 μM, viability, Map2 and TH readouts): no significant changes at any of the tested concentrations; also recorded: non-toxic across all tested concentrations
3 | COc1ccc2cc3[n+](cc2c1OC)CCc1cc2c(cc1-3)OCO2 [BC, berberine chloride] | strongly reduced | strongly reduced | significantly reduced TH levels compared to Map2 over a broad range of concentrations | statistically significant difference in reduction between TH and Map2 | strongly reduced | –
4 | [CH3][Hg][Cl] [methyl mercuric (II) chloride] | – | – | – | statistically significant difference in reduction between TH and Map2 | – | –
5 | Oc1c(Cl)cc(Cl)c(Cl)c1Cc1c(O)c(Cl)cc(Cl)c1Cl [HCP, hexachlorophene] | strongly reduced | strongly reduced | – | – | strongly reduced | toxicity in the primary screens [4]: highly toxic
6 | C=C(C)[C@H]1Cc2c(ccc3c2O[C@@H]2COc4cc(OC)c(OC)cc4[C@@H]2C3=O)O1 [rotenone, reference compound] | – | – | significantly reduced TH levels compared to Map2 over a broad range of concentrations | – | – | –
7 | Cl.NCCc1cc(O)c(O)cc1O [6OHDA, 6-hydroxydopamine hydrochloride, reference compound] | – | – | – | – | – | IC50 ([5]; AMO line 1 cell line): 44.2 µM; IC50 ([5]; AMO line 2 cell line): 65 µM; IC50 ([6]; AMO line 1, 3D): 315 µM; IC50 ([6]; AMO line 2, 3D): 269 µM; toxicity in 3D AMOs compared with 2D-cultured dopaminergic neurons ([6]; both cell lines, 48 h, 0.01-1,000 μM, padj < 0.05): significantly stronger toxic effect in 2D than 3D
